# Laboratory results published in DBAASP.
# “And” between values parts separate entries of the source, which are not always exact repeats. Equal values may be shown once.
# Assays:
# Experiment in all cases: ≥ marks a high value that may be exact or a test limit, other limits are often not marked, values filed in µg/mL are converted to µM
# [1] = tested on: Acinetobacter baumannii ATCC 19606
# Candida albicans = tested on: Candida albicans
# [2] = tested on: Corynebacterium jeikeium ATCC BAA-949
# [3] = tested on: Escherichia coli ATCC 25922
# [4] = tested on: Pseudomonas aeruginosa AA43
# [5] = tested on: Pseudomonas aeruginosa ATCC 19660
# [6] = tested on: Pseudomonas aeruginosa ATCC 27853
# [7] = tested on: Pseudomonas aeruginosa ME
# [8] = tested on: Pseudomonas aeruginosa PAO1
# [9] = tested on: Pseudomonas aeruginosa R1
# Pseudomonas aeruginosa = tested on: Pseudomonas aeruginosa
# [10] = tested on: Staphylococcus aureus ATCC 25923
# Staphylococcus aureus = tested on: Staphylococcus aureus
# [11] = tested on: Staphylococcus epidermidis ATCC 12228
# [12] = tested on: Staphylococcus epidermidis
# Staphylococcus hominis = tested on: Staphylococcus hominis
# Aeromonas hydrophila = tested on: Aeromonas hydrophila
# Bacillus cereus = tested on: Bacillus cereus
# Bacillus subtilis = tested on: Bacillus subtilis
# Cryptococcus neoformans = tested on: Cryptococcus neoformans
# Escherichia coli = tested on: Escherichia coli
# Pseudomonas fluorescens = tested on: Pseudomonas fluorescens
# Shigella flexneri = tested on: Shigella flexneri
# Vibrio alginolyticus = tested on: Vibrio alginolyticus
# Vibrio parahaemolyticus = tested on: Vibrio parahaemolyticus
# [13] = tested on: Bacillus subtilis ATCC 6633
# [14] = tested on: Salmonella enterica subsp. enterica serovar Enteritidis BNCC 103134
# [15] = tested on: Bacillus subtilis KCTC 3068
# [16] = tested on: Escherichia coli DSM 1103
# [17] = tested on: Escherichia coli KCTC 1682
# [18] = tested on: Pseudomonas aeruginosa CCARM 2092
# [19] = tested on: Pseudomonas aeruginosa CCARM 2095
# [20] = tested on: Pseudomonas aeruginosa CCARM 2109
# [21] = tested on: Pseudomonas aeruginosa DSM 1117
# [22] = tested on: Pseudomonas aeruginosa KCTC 1637
# [23] = tested on: Salmonella typhimurium KCTC 1926
# [24] = tested on: Staphylococcus aureus CCARM 3001
# [25] = tested on: Staphylococcus aureus CCARM 3089
# [26] = tested on: Staphylococcus aureus CCARM 3543
# [27] = tested on: Staphylococcus aureus DSM 1104
# [28] = tested on: Staphylococcus aureus KCTC 1621
# [29] = tested on: Staphylococcus epidermidis DSM 1798
# [30] = tested on: Staphylococcus epidermidis KCTC 1917
# [31] = tested on: Acinetobacter baumannii 4-MRGN
# Candida albicans CAN105 = tested on: Candida albicans CAN105
# Enterococcus faecalis = tested on: Enterococcus faecalis
# Escherichia coli UB1005 = tested on: Escherichia coli UB1005
# [32] = tested on: Pseudomonas aeruginosa H187
# [33] = tested on: Staphylococcus aureus K147
# [34] = tested on: Staphylococcus aureus SAP 0017
smiles,measurement,setting,value
CC[C@H](C)[C@H](NC(=O)CN)C(=O)N[C@@H](Cc1ccccc1)C(=O)N[C@@H](CO)C(=O)N[C@@H](CCCCN)C(=O)N[C@@H](CC(C)C)C(=O)N[C@@H](C)C(=O)NCC(=O)N[C@@H](CCCCN)C(=O)N[C@@H](CCCCN)C(=O)N[C@H](C(=O)N[C@@H](CCCCN)C(=O)N[C@@H](CC(N)=O)C(=O)N[C@@H](CC(C)C)C(=O)N[C@@H](CC(C)C)C(=O)N[C@H](C(=O)N[C@@H](CO)C(=O)NCC(=O)N[C@@H](CC(C)C)C(=O)N[C@@H](CCCCN)C(=O)NCC(N)=O)[C@@H](C)CC)[C@@H](C)CC [GIFSKLAGKKIKNLLISGLKG],MIC,[1],1.56 µM
same,MIC,Candida albicans,2.83 µM
same,MIC,[2],0.125 µM
same,MIC,[3],1.56 µM
same,MIC,[4],4.03 µM
same,MIC,[5],16 µM
same,MIC,[6],4 µM and 3.12 µM
same,MIC,[7],8 µM
same,MIC,[8],4 µM and > 2.01 µM
same,MIC,[9],2 µM
same,MIC,Pseudomonas aeruginosa,4 µM
same,MIC,[10],> 100 µM
same,MIC,Staphylococcus aureus,64 µM and 100 µM
same,MIC,[11],3.12 µM
same,MIC,[12],8 µM
same,MIC,Staphylococcus hominis,1 µM
CSCC[C@H](NC(=O)[C@H](CCCCN)NC(=O)[C@H](CCC(N)=O)NC(=O)[C@H](CCSC)NC(=O)[C@H](CC(N)=O)NC(=O)[C@H](CCCN=C(N)N)NC(=O)[C@H](CC(N)=O)NC(=O)[C@H](Cc1ccc(O)cc1)NC(=O)[C@H](CCCCN)NC(=O)[C@H](Cc1ccc(O)cc1)NC(=O)[C@H](CC(=O)O)NC(=O)[C@H](CCCCN)NC(=O)[C@H](Cc1c[nH]c2ccccc12)NC(=O)[C@H](C)NC(=O)[C@H](CCC(N)=O)NC(=O)[C@H](CCCN=C(N)N)NC(=O)[C@H](C)NC(=O)CNC(=O)[C@@H](N)CCCCN)C(=O)N[C@@H](CC(N)=O)C(=O)N[C@@H](CCC(N)=O)C(=O)NCC(=O)N[C@@H](Cc1ccc(O)cc1)C(=O)NCC(=O)N[C@@H](CCC(N)=O)C(=O)N[C@@H](CCC(N)=O)C(=O)NCC(=O)NCC(=O)O [KGARQAWKDYKYNRNMQKMNQGYGQQGG],MIC,Aeromonas hydrophila,≥ 50 µM
same,MIC,Bacillus cereus,≥ 50 µM
same,MIC,Bacillus subtilis,≥ 35.4 µM
same,MIC,Candida albicans,> 50 µM
same,MIC,Cryptococcus neoformans,17.7 µM
same,MIC,Escherichia coli,> 50 µM
same,MIC,Pseudomonas aeruginosa,> 50 µM
same,MIC,Pseudomonas fluorescens,≥ 50 µM
same,MIC,Shigella flexneri,≥ 50 µM
same,MIC,Staphylococcus aureus,> 50 µM
same,MIC,[12],≥ 50 µM
same,MIC,Vibrio alginolyticus,≥ 50 µM
same,MIC,Vibrio parahaemolyticus,≥ 50 µM
NC(=O)C[C@H](NC(=O)[C@H](Cc1cnc[nH]1)NC(=O)[C@H](CC(N)=O)NC(=O)[C@@H](N)Cc1ccc(O)cc1)C(=O)N[C@@H](Cc1ccccc1)C(=O)O [YNHNF],MIC,[13],≥ 300 µM
same,MIC,[3],150 µM
same,MIC,[14],≥ 300 µM
same,MIC,[10],300 µM
CC(C)[C@H](NC(=O)[C@H](CCCCN)NC(=O)[C@H](CCCN=C(N)N)NC(=O)[C@H](CCCCN)NC(=O)[C@H](CCCCN)NC(=O)[C@H](CCCCN)NC(=O)[C@@H]1CCCN1C(=O)[C@H](CCC(N)=O)NC(=O)[C@H](CO)NC(=O)[C@H](Cc1c[nH]c2ccccc12)NC(=O)[C@H](CCC(=O)O)NC(=O)[C@@H](NC(=O)[C@H](Cc1c[nH]c2ccccc12)NC(=O)[C@H](Cc1c[nH]c2ccccc12)NC(=O)[C@@H](NC(=O)[C@H](CCC(=O)O)NC(=O)[C@H](Cc1c[nH]c2ccccc12)NC(=O)[C@H](Cc1c[nH]c2ccccc12)NC(=O)[C@@H](NC(=O)[C@H](CCC(=O)O)NC(=O)[C@@H](N)CCCCN)[C@@H](C)O)[C@@H](C)O)[C@@H](C)O)C(=O)O [KETWWETWWTEWSQPKKKRKV],MIC,[15],8 µM
same,MIC,[16],≥ 87 µM
same,MIC,[17],≥ 32 µM
same,MIC,[18],≥ 32 µM
same,MIC,[19],≥ 64 µM
same,MIC,[20],≥ 32 µM
same,MIC,[21],≥ 87 µM
same,MIC,[22],≥ 64 µM
same,MIC,[23],≥ 64 µM
same,MIC,[24],≥ 64 µM
same,MIC,[25],≥ 64 µM
same,MIC,[26],≥ 64 µM
same,MIC,[27],≥ 87 µM
same,MIC,[28],≥ 64 µM
same,MIC,[29],≥ 87 µM
same,MIC,[30],≥ 64 µM
C[C@H](N)C(=O)N[C@H](C(=O)N[C@@H](CS)C(=O)N[C@@H](Cc1ccc(O)cc1)C(=O)N[C@H]1CSSC[C@@H](C(=O)N[C@@H](C)C(=O)N[C@H](C(=O)N[C@@H](CCCN=C(N)N)C(=O)O)[C@@H](C)O)NC(=O)[C@H](CCCN=C(N)N)NC(=O)CNC(=O)[C@H]([C@@H](C)O)NC(=O)[C@H](CCCN=C(N)N)NC1=O)[C@@H](C)O [ATCYCRTGRCATR],MIC,[31],≥ 99.9 µM
same,MIC,[6],> 99.9 µM
CC[C@H](C)[C@H](NC(=O)CNC(=O)[C@@H](NC(=O)[C@H](CCCCN)NC(=O)[C@H](CCCCN)NC(=O)[C@H](Cc1ccccc1)NC(=O)[C@H](CC(C)C)NC(=O)[C@H](CCCCN)NC(=O)[C@H](Cc1c[nH]c2ccccc12)NC(=O)[C@@H](N)CCCCN)[C@@H](C)CC)C(=O)NCC(=O)N[C@@H](C)C(=O)N[C@H](C(=O)N[C@@H](CC(C)C)C(=O)N[C@H](C(=O)N[C@H](C(=O)NCC(=O)N[C@@H](CC(C)C)C(=O)N1CCC[C@H]1C(=O)N[C@@H](C)C(=O)N[C@@H](CC(C)C)C(=O)N[C@H](C(=O)N[C@@H](CO)C(=O)O)[C@@H](C)CC)[C@@H](C)O)[C@@H](C)O)C(C)C [KWKLFKKIGIGAVLTTGLPALIS],MIC,Candida albicans CAN105,26.1 µM
same,MIC,Enterococcus faecalis,26.1 µM
same,MIC,Escherichia coli UB1005,5.3 µM
same,MIC,[32],13 µM
same,MIC,[33],26.1 µM
same,MIC,[34],26.1 µM
same,MIC,[12],17.5 µM
